Here are results for 3 compounds from US10138228B2, “Isoxazole derivatives as FXR agonists and methods of use therof” (Enanta Pharmaceuticals, Inc., priority 2016, dated 2018).

The experiment deals with human FXR (NR1H4) (Homo sapiens (Human), UniProt Q96RI1). The experiment in a line: Human FXR (NR1H4) Assay (Gal4 promoter driven luciferase reporter, CHO cells). The format is cell-based. The following applies: CHO reporter cells expressing human NR1H4; for EC50: 22 hours incubation, potency ranges; for Efficacy (%): normalized to CDCA set as 100%. From the text:
Human FXR (NR1H4) Assay Determination of a ligand mediated Gal4 promoter driven transactivation to quantify ligand binding mediated activation of FXR. FXR Reporter Assay kit purchased from Indigo Bioscience (Catalogue number: IB00601) to determine the potency and efficacy of compound developed by Enanta that can induce FXR activation. The principle application of this reporter assay system is to quantify functional activity of human FXR. The assay utilizes non-human mammalian cells, CHO (Chinese hamster ovary) cells engineered to express human NR1H4 protein (referred to as FXR). Reporter cells also incorporate the cDNA encoding beetle luciferase which catalyzes the substrates and yields photon emission. Luminescence intensity of the reaction is quantified using a plate-reading luminometer, Envision. Reporter Cells include the luciferase reporter gene functionally linked to an FXR responsive promoter. Thus, quantifying changes in luciferase expression in the treated reporter cells provides a sensitive surrogate measure of the changes in FXR activity. […] The assay is according to the manufacturer's instructions. In brief, the assay was performed in white, 96 well plates using final volume of 100 μl containing cells with different doses of compounds. Retrieve Reporter Cells from −80° C. storage. Perform a rapid thaw of the frozen cells by transferring a 10 ml volume of 37° C. cell recovery medium into the tube of frozen cells. Recap the tube of Reporter Cells and immediately place it in a 37° C. water bath for 5-10 minutes. Retrieve the tube of Reporter Cell Suspension from the water bath. Sanitize the outside surface of the tube with a 70% alcohol swab, and then transfer it into the cell culture hood. Dispense 90 μl of cell suspension into each well of the 96-well Assay Plate. Transfer the plate into 37° C. incubator, allowing the cells adherent to the bottom of the well. Dilute compounds in Dilution Plate (DP), and administrate to cells at Assay Plate (AP). DMSO content of the samples was kept at 0.2%. Cells were incubated for additional 22 hours before luciferase activities were measured. Thirty minutes before intending to quantify FXR activity, remove Detection Substrate and Detection Buffer from the refrigerator and place them in a low-light area so that they may equilibrate to room temperature. Remove the plate's lid and discard all media contents by ejecting it into an appropriate waste container. Gently tap the inverted plate onto a clean absorbent paper towel to remove residual droplets. Cells will remain tightly adhered to well bottoms. Add 100 μl of luciferase detection reagent to each well of the assay plate. Allow the assay plate to rest at room temperature for at least 5 minutes following the addition of LDR. Set the instrument (Envision) to perform a single 5 second “plate shake” prior to reading the first assay well. Read time may be 0.5 second (500 mSec) per well.

Chain of human FXR (NR1H4) (Q96RI1 whole entry, the tested form may be a part): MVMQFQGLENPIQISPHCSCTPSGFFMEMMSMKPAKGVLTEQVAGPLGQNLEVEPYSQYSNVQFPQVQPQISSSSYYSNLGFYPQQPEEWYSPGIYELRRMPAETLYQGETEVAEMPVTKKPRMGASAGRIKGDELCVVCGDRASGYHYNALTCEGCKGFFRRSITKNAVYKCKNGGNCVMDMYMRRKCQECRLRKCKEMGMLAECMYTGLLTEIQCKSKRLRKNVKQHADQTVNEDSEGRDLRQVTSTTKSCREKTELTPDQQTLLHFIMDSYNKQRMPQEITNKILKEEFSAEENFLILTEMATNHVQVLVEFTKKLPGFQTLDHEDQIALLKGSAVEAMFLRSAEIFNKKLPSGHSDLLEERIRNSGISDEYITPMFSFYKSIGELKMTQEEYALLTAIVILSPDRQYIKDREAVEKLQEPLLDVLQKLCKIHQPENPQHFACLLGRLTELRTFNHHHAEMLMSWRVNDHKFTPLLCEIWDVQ

With `CN(Cc1ccc(C(=O)NS(=O)(=O)C2CC2)cc1)c1ccc(OCc2c(-c3c(Cl)cccc3Cl)noc2C2CC2)nc1C(F)(F)F` [Example 1], the EC50 lay within 100 to 1000 nM and the “Efficacy (%)” value worked out at 145%.
For the compound `CN(Cc1ccc(C(=O)NS(=O)(=O)c2ccc(C(C)(C)C)cc2)cc1)c1ccc(OCc2c(-c3c(Cl)cccc3Cl)noc2C2CC2)nc1C(F)(F)F` [Example 2], the EC50 lay within 1000 to 10000 nM and the “Efficacy (%)” value came out at 108%.
Consider `CN(Cc1ccc(C(=O)NS(=O)(=O)N(C)C)cc1)c1ccc(OCc2c(-c3c(Cl)cccc3Cl)noc2C2CC2)nc1C(F)(F)F` [Example 3], for which the “Efficacy (%)” value worked out at 153%.
